Data as given in ChEMBL document CHEMBL1134222, “The identification of a potent, water soluble inhibitor of lipoprotein-associated phospholipase A2” (Bioorg Med Chem Lett, 2001).

Experiments:
[1] = Concentration required for inhibition of human serine dependent Phospholipase A2
Rattus norvegicus [2] = species: Rattus norvegicus; test: Compound was tested for its percent CNS penetration in rat; assay type: functional, Central nervous system
Homo sapiens = species: Homo sapiens; test: Compound was tested for inhibition of plasma enzyme in whole human plasma at concentration 100 nM; assay type: functional
Rattus norvegicus [3] = test: Compound was tested for liver blood flow after intravenous administration in rat; assay type: functional
[4] = Rapid clearance after intravenous administration in rat was determined; assay type: ADME, organism-based; conditions: blood, read-out: CLb
[5] = tested on: Platelet-activating factor acetylhydrolase (Rattus norvegicus); test: Compound was tested for inhibition of Lipoprotein associated phospholipase A2 in rat; conditions: concentration not given here

SMILES | IC50 [1] | other results
CCCCCCCCN(C)C(=O)Cn1cc(Cc2cnc(=O)n(CC(=O)NCCO)c2)c(=O)nc1SCc1ccc(F)cc1 | 8 nM | 
CCCCCCCCCCCCN(C)C(=O)Cn1cc(Cc2cncnc2)c(=O)nc1SCc1ccc(F)cc1 |  | Activity (Rattus norvegicus [2]): <2%
CCCCCCCCN(C)C(=O)Cn1cc(Cc2cnc(=O)n(CC(=O)OCC)c2)c(=O)nc1SCc1ccc(F)cc1 | 75 nM | 
CCCCCCCCNC(=O)Cn1cc(Cc2cncnc2)c(=O)nc1SCc1ccc(F)cc1 | 7 nM | 
CCCCCCCCN(C)C(=O)Cn1cc(Cc2cnc(=O)n(CC(=O)N3CCOCC3)c2)c(=O)nc1SCc1ccc(F)cc1 | 10 nM | 
CCCCCCCCCCCCN(C)C(=O)Cn1cc(Cc2cnc(=O)n(CC(=O)OCC)c2)c(=O)nc1SCc1ccc(F)cc1 | 4 nM | 
CCCCCCCCN(C)C(=O)Cn1cc(Cc2cnc(=O)n(CC(=O)NCCC)c2)c(=O)nc1SCc1ccc(F)cc1 | 11 nM | 
CCCCCCCCCCCCN(C)C(=O)Cn1cc(Cc2cnc(=O)n(C)c2)c(=O)nc1SCc1ccc(F)cc1 | 5 nM | 
CCCCCCCCN(C)C(=O)Cn1cc(Cc2cnc(=O)n(CC(=O)NC)c2)c(=O)nc1SCc1ccc(F)cc1 | 6 nM | Activity (Rattus norvegicus [2]): <7%
CCCCCCCCCCCCN(C)C(=O)Cn1cc(Cc2cnc(=O)n(CC(=O)NCCO)c2)c(=O)nc1SCc1ccc(F)cc1 | 0.6 nM | inhibition at 0.1 µM (Homo sapiens): 79%
CCCCCCCCCCCCN(C)C(=O)Cn1cc(Cc2cnc(=O)n(CC(=O)N3CCOCC3)c2)c(=O)nc1SCc1ccc(F)cc1 | 0.7 nM | Activity (Rattus norvegicus [2]): <7%; inhibition at 0.1 µM (Homo sapiens): 80%
CCCCCCCCCCCCN(C)C(=O)Cn1cc(Cc2cnc(=O)n(CC(=O)O)c2)c(=O)nc1SCc1ccc(F)cc1 | 1 nM | Activity (Rattus norvegicus [2]): 37%; Activity (Rattus norvegicus [3]): 85%; clearance [4]: 76 mL/min/kg; inhibition [5]: 83%
CCCCCCCCN(C)C(=O)Cn1cc(Cc2cnc(=O)n(CC(=O)N3CCN(C(C)=O)CC3)c2)c(=O)nc1SCc1ccc(F)cc1 | 5 nM | 
CCCCCCCCN(C)C(=O)Cn1cc(Cc2cnc(=O)n(CC(=O)N3CCN(C)CC3)c2)c(=O)nc1SCc1ccc(F)cc1 | 3 nM | 
CCCCCCCCCCCCN(C)C(=O)Cn1cc(Cc2cnc(=O)n(CCO)c2)c(=O)nc1SCc1ccc(F)cc1 | 1 nM | 
CCCCCCCCN(C)C(=O)Cn1cc(Cc2cnc(=O)n(CC(=O)O)c2)c(=O)nc1SCc1ccc(F)cc1 | 14 nM | Activity (Rattus norvegicus [2]): 10%
CCCCCCCCCCCCN(C)C(=O)Cn1cc(Cc2cnc(=O)n(CC(=O)N3CCNC(=O)C3)c2)c(=O)nc1SCc1ccc(F)cc1 | 0.4 nM | 
CCCCCCCCN(C)C(=O)Cn1cc(Cc2cnc(=O)n(CC(=O)N3CCNC(=O)C3)c2)c(=O)nc1SCc1ccc(F)cc1 | 2 nM | 
CCCCCCCCCCCCN(C)C(=O)Cn1cc(Cc2cnc(=O)n(CC(=O)NC)c2)c(=O)nc1SCc1ccc(F)cc1 | 0.4 nM | inhibition at 0.1 µM (Homo sapiens): 80%

More lines, main results first:

IC50 [1] | SMILES | other results
4 nM | CCCCCCCCN(C)C(=O)Cn1cc(Cc2cnc(OC)nc2)c(=O)nc1SCc1ccc(F)cc1 | 
7 nM | CCCCCCCCN(C)C(=O)Cn1cc(Cc2cnc(OCc3ccccc3)nc2)c(=O)nc1SCc1ccc(F)cc1 | 
15 nM | CCCCCCCCN(C)C(=O)Cn1cc(Cc2cncnc2)c(=O)nc1SCc1ccc(F)cc1 | 
0.9 nM | CCCCCCCCCCCCN(C)C(=O)Cn1cc(Cc2cnc(O)nc2)c(=O)nc1SCc1ccc(F)cc1 | 
27 nM | CCCCCCCCN(C)C(=O)Cn1cc(Cc2cnc(=O)n(C)c2)c(=O)nc1SCc1ccc(F)cc1 | 
3 nM | CCCCCCCCN(C)C(=O)Cn1cc(Cc2cnc(OCC)nc2)c(=O)nc1SCc1ccc(F)cc1 | 
1 nM | CCCCCCCCCCCCN(C)C(=O)Cn1cc(Cc2cnc(OC)nc2)c(=O)nc1SCc1ccc(F)cc1 | 
5 nM | CCCCCCCCN(C)C(=O)Cn1cc(Cc2cnc(=O)n(CCO)c2)c(=O)nc1SCc1ccc(F)cc1 | 
20 nM | CCCCCCCCN(C)C(=O)Cn1cc(Cc2cnc(=O)n(CC)c2)c(=O)nc1SCc1ccc(F)cc1 | 
4 nM | CCCCCCCCN(C)C(=O)Cn1cc(Cc2cnc(O)nc2)c(=O)nc1SCc1ccc(F)cc1 | Activity (Rattus norvegicus [2]): 7%
